This passage reports inhibition results from ChEMBL document CHEMBL5653615 (J Biol Chem, 2013).

Assay [1] addresses Cyclin-dependent kinase 5/CDK5 activator 1 (Homo sapiens) (UniProt Q00535+Q15078). Briefly: Inhibition of human CDK5/p25 at 18.6 nM by HotSpot assay relative to control. It counts as protein-complex assay.
Assay [2] has as its target Serine/threonine-protein kinase MARK2 (Homo sapiens) (UniProt Q7KZI7). The assay can be described thus: Inhibition of human PAR-1Ba at 18.6 nM by HotSpot assay relative to control.
For assay [3], the target named is T1, Serine/threonine-protein kinase Nek1 (Homo sapiens) (UniProt Q96PY6).
T1 sequence (whole entry): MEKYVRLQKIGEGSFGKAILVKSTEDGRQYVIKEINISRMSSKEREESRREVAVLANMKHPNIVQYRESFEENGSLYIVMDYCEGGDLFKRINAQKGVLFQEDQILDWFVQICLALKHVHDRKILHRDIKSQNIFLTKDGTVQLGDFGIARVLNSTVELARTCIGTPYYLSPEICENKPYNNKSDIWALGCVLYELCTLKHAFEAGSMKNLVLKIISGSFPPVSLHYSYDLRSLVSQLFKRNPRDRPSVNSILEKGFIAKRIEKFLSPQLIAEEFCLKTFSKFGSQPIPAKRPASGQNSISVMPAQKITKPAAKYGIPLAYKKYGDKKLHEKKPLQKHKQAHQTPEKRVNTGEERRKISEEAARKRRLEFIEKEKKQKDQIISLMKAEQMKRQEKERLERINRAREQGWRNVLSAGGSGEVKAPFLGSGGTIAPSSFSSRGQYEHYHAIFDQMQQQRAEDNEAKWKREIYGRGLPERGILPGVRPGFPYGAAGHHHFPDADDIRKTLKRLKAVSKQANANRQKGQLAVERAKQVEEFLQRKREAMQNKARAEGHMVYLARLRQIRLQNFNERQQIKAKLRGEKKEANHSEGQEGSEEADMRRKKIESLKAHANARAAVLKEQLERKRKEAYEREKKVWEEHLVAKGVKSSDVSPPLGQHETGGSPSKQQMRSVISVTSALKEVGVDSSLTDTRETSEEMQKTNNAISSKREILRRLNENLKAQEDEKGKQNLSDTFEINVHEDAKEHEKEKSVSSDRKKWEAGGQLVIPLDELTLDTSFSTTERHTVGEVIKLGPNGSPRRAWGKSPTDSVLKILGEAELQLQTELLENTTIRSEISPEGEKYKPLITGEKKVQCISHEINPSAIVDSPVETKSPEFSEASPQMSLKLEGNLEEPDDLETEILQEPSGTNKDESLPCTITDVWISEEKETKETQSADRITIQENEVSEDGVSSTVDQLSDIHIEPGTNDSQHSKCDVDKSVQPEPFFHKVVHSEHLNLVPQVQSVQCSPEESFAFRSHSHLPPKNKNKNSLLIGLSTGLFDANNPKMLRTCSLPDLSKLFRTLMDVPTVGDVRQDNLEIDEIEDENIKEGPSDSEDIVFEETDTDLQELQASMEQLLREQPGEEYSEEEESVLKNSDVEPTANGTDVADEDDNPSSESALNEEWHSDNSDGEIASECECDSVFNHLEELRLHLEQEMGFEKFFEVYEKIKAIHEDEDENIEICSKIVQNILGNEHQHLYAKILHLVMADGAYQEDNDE
The assay can be described thus: Inhibition of human NEK1 at 18.6 nM by HotSpot assay relative to control.

Assay [4] addresses Serine/threonine-protein kinase PLK3 (Homo sapiens) (UniProt Q9H4B4). The assay can be described thus: Inhibition of human PLK3 at 18.6 nM by HotSpot assay relative to control.
The target of assay [5] is T2, Serine/threonine-protein kinase Sgk3 (Homo sapiens) (UniProt Q96BR1).
T2 sequence (whole entry): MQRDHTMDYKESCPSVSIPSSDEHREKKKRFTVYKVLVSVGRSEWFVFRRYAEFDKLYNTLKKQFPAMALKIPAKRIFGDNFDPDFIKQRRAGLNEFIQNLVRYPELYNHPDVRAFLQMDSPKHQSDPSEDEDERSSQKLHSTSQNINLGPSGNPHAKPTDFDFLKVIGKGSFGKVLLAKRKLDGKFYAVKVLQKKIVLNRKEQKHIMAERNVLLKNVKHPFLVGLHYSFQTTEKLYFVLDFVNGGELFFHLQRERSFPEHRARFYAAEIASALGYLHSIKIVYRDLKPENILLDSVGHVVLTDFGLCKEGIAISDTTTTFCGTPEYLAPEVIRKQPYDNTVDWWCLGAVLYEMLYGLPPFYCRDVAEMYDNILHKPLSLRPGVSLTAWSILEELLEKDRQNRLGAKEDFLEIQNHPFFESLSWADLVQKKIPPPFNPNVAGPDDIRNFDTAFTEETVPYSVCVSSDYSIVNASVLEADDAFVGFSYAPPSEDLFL
The assay can be described thus: Inhibition of human SGKL at 18.6 nM by HotSpot assay relative to control.

For assay [6], the target named is Casein kinase I isoform epsilon (Homo sapiens) (UniProt P49674). Briefly: Inhibition of human CK1epsilon at 1.82 nM by HotSpot assay relative to control.
Sequence of Casein kinase I isoform epsilon (Homo sapiens) (P49674 whole entry, looked up, canonical isoform): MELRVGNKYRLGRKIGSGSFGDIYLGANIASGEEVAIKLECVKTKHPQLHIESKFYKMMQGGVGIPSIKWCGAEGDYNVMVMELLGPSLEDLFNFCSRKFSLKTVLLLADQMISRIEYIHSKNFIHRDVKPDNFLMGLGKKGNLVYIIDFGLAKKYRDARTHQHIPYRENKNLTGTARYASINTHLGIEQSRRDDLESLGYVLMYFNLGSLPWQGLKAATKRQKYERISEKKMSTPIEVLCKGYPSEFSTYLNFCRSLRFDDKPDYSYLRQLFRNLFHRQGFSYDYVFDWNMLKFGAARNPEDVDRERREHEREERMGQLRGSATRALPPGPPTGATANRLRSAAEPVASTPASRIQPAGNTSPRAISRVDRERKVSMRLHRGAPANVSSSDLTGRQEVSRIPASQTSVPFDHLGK
The target of assay [7] is T3, Rhodopsin kinase GRK7 (Homo sapiens) (UniProt Q8WTQ7).
T3 sequence (whole entry): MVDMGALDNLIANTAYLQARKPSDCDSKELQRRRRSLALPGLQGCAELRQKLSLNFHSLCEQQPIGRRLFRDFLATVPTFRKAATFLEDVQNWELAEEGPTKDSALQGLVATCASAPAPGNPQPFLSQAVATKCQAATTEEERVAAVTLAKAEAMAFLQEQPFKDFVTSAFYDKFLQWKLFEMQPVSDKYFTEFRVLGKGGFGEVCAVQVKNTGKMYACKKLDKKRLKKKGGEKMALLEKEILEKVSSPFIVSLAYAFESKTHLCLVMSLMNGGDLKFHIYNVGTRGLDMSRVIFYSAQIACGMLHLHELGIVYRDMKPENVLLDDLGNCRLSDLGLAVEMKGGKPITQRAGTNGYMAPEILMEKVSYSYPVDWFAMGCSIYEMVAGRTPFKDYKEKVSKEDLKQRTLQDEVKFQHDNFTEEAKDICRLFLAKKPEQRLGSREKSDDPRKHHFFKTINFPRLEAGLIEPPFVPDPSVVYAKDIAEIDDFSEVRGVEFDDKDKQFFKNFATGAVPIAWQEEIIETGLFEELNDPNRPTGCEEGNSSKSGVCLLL
Briefly: Inhibition of human GRK7 at 1.82 nM by HotSpot assay relative to control.

The target in assay [8] is Serine/threonine-protein kinase N2 (Homo sapiens) (UniProt Q16513). The assay can be described thus: Inhibition of human PRK2 at 1.82 nM by HotSpot assay relative to control.
Sequence of Serine/threonine-protein kinase N2 (Homo sapiens) (Q16513 whole entry, looked up): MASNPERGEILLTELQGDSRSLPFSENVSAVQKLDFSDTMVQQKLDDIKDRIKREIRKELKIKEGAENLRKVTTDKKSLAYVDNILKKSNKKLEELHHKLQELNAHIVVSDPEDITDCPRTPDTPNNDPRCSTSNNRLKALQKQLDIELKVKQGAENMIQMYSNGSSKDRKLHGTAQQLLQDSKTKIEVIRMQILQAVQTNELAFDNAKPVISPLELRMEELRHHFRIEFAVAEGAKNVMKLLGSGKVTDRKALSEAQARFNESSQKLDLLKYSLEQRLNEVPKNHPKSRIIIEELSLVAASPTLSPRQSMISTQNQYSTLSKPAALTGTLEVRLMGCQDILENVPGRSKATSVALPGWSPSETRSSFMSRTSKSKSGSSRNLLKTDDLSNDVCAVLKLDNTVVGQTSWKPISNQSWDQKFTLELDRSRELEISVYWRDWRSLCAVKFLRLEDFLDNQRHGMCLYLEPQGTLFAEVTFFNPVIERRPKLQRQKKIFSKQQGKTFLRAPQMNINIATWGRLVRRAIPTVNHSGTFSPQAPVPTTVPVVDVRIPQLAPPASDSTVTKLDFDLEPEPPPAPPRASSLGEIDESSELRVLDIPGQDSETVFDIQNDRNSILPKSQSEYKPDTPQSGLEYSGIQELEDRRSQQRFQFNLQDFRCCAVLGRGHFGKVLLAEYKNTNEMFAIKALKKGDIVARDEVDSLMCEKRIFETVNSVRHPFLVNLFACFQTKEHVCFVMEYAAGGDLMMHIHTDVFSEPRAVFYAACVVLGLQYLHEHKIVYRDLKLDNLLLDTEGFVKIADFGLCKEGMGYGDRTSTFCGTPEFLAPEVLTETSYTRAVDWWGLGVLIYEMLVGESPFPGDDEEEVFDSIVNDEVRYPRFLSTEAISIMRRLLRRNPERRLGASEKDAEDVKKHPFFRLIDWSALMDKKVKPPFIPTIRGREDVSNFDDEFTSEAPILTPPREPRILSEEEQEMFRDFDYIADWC

Sequence of Serine/threonine-protein kinase MARK2 (Homo sapiens) (Q7KZI7 whole entry): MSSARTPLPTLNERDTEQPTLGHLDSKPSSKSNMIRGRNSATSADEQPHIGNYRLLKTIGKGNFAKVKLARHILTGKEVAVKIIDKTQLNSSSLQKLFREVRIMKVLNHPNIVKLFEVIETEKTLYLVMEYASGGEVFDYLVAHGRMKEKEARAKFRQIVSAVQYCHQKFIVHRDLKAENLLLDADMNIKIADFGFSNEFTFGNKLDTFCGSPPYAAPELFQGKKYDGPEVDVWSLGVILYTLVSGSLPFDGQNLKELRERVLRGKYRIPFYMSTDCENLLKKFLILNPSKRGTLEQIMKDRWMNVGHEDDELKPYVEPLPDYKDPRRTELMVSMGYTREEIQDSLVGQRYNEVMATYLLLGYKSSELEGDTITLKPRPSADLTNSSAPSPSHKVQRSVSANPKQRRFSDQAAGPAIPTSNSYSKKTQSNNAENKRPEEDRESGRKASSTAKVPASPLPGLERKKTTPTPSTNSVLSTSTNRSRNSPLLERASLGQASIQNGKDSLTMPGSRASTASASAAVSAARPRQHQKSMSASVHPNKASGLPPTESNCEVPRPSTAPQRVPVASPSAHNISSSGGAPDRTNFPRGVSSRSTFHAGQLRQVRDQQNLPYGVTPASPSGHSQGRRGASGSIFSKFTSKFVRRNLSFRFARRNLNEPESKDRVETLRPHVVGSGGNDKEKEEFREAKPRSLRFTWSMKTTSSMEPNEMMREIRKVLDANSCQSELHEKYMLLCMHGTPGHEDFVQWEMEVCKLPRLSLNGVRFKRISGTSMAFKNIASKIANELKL
Sequence of Serine/threonine-protein kinase PLK3 (Homo sapiens) (Q9H4B4 whole entry, looked up): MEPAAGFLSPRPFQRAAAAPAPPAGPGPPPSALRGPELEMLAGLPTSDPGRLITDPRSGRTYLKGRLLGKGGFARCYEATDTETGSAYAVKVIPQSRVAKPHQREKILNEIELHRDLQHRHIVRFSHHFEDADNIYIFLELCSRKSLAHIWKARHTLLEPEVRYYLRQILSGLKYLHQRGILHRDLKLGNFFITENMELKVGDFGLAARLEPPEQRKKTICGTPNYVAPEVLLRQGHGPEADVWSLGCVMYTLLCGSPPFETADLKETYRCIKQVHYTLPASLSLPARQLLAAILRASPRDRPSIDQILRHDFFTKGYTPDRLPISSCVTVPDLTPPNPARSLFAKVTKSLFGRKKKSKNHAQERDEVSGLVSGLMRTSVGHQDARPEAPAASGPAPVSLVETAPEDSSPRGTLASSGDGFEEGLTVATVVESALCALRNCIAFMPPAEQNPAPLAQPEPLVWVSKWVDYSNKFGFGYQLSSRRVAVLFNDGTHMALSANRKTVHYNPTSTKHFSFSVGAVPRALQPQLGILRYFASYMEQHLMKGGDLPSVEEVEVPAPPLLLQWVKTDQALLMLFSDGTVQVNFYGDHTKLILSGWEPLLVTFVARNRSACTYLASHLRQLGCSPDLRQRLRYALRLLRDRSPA
Sequence of Cyclin-dependent kinase 5/CDK5 activator 1 (Homo sapiens) (Q00535 whole entry): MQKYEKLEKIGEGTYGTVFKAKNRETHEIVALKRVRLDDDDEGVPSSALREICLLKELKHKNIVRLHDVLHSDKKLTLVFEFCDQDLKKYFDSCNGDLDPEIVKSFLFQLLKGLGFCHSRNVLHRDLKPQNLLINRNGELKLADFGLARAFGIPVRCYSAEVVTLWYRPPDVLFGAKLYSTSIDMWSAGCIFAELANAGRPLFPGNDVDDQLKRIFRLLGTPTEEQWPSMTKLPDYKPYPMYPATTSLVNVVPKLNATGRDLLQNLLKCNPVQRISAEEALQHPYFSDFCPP
Sequence of Cyclin-dependent kinase 5/CDK5 activator 1 (Homo sapiens) (Q15078 99-307 partner limits assumed): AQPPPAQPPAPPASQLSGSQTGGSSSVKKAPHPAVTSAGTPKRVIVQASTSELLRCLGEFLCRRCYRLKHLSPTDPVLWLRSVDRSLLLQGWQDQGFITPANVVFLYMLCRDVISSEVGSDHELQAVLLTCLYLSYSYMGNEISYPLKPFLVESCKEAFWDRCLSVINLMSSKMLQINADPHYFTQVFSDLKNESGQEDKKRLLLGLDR

Turning to `C[C@]1(O)C[C@@H](c2nc(-c3ccc4ccc(-c5ccccc5)nc4c3)c3c(N)nccn32)C1`, the inhibition in assay [1] is 4.12%; in assay [2], -3.78%; in assay [3] it was 5.45%; in assay [4], 3.09%; in assay [5] it was 0.11%.

On to `C[C@@]1(C(=O)Nc2ccc(F)nc2)CCCN1c1nc(Nc2cc(C3CC3)n[nH]2)c2cccn2n1`, for which the inhibition was 1.26% in assay [6], 4.43% in assay [7] and -0.34% in assay [8].
